In general, IC50 refers to the concentration that inhibits the measured activity by half. Read a low IC50 as greater potency in that assay.

In one data set the test system is A549.EpoB40. In words: MTS assay, A549.EpoB40 (β-tubulin mutant). It is filed as cell-based. The protocol:
(§1) Next, whether microtubule inhibition was functionally important for flubendazole's cytotoxicity was determined.
(§2) Leukemia (U937, MDAY, CEM, CEM-VBL) and solid tumor cell lines (PPC-1, HeLa) were cultured in RPMI 1640 medium. The epidermoid carcinoma cell lines KB-3-1 and KB-4.0-HTI^23 were grown in Dulbecco's Modified Eagle Medium. The lung carcinoma cell lines A549 and A549.EpoB40 were grown in RPMI with the latter supplemented with 20% fetal calf serum (FCS), and 40 nM epothilone B.^24 Leukemia cell lines OCI-AML2, CEM, and NB4 and all the myeloma cell lines (OPM2, KMS11, JJN3 LP1, H929, L1, KMS12, KSM18 and OCI My5) were maintained in Iscove's Modified Dulbecco's Medium (IMDM). TEX cells were maintained in IMDM, 15% FCS, 1% penicillin-streptomycin, 2 mM L-glutamine, 20 ng/mL SCF, 2 ng/mL IL-3. Unless otherwise noted, all media were supplemented with 10% FCS, 100 units/mL of streptomycin and 100 μg/mL of penicillin (all from Hyclone, Logan, Utah). Cells were incubated in a humidified air atmosphere containing 5% CO2 at 37° C.
(§3) Cell growth and viability was measured using the 3-(4,5-dimethylthiazol-2-yl)-5-(3-carboxymethoxyphenyl)-2-(4-sulfophenyl)-2H-tetrazolium inner salt (MTS) reduction assay (Promega, Madison, Wis.) according to the manufacture's protocol and as previously described^25. […] Optical density (OD) was measured at 490 nm.
(In general: Formazan colour is commonly taken as a measure of viable cells.)

Another data set has as its system OCI-AML2 cells. The protocol:
Sub-lethally irradiated SCID mice were injected subcutaneously with OCI-AML2 cells (n=20; 10 per group). After implantation, mice were treated with 50 mg/kg flubendazole (A), 20 mg/kg flubendazole (B), or vehicle control by intraperitoneal injection daily. Tumor volume was measured over time. After 16 days (20 mg/kg dose) or 18 days (50 mg/kg dose), mice were sacrificed and tumors were excised, measured and weighted.
Sub-lethally irradiated SCID mice were injected subcutaneously with OCI-AML2 cells (n=40; 10 per group). […] After 16 (C) or 18 (D) days, mice were sacrificed and tumors were excised, measured and weighted. Data represent the mean±SD tumor weight.
Sub-lethally irradiated SCID mice were injected subcutaneously in the left flank with leukemia OCI-AML2 (2.0×10^6) or myeloma OPM2 (1.0×10^7) cells. Mice were then randomly assigned to receive flubendazole (in 0.9% NaCl and 0.01% tween-80) or vehicle control (0.9% NaCl and 0.01% tween-80) intraperitoneally. […] Tumor volumes (tumor length×width^2×0.5236) were monitored daily using calipers. At the end of the experiment (16-18 days), mice were sacrificed, tumors excised and tumor volume and weight measured. All animal studies were carried out according to the regulations of the Canadian Council on Animal Care and with the approval of the local ethics review board.

The subject of the next data set is CEM. In words: MTS cell growth and viability assay, CEM. It is filed as cell-based. To be noted: Homo sapiens, CCRF-CEM, 3 replicates. The protocol: as §2
Cell growth and viability was measured using the 3-(4,5-dimethylthiazol-2-yl)-5-(3-carboxymethoxyphenyl)-2-(4-sulfophenyl)-2H-tetrazolium inner salt (MTS) reduction assay (Promega, Madison, Wis.) according to the manufacture's protocol and as previously described^25. Cells were seeded in 96 well plates and treated with drug for 72 h. Optical density (OD) was measured at 490 nm.

The next data set relates to U937 leukemia cells. Put plainly: Analysis of gene expression (Affymetrix arrays). It is filed as cell-based. The settings on record: 1.0 μM, 4 hours. The protocol:
Briefly, total RNA was harvested from treated and untreated cells and hybridized to Affymetrix HG U133 Plus 2.0 gene expression oligonucleotide arrays (Affymetrix, Santa Clara, Calif., USA). Labeling and hybridization to arrays were performed by The Centre for Applied Genomics (Medical and Related Sciences Centre, Toronto, ON, Canada). Microarray data were analyzed using GeneSpring GX v10.0 (Agilent), and genes deregulated >4-fold after 4 hours flubendazole treatment were identified. Pathways and gene ontology analyses were carried out using Ingenuity Pathways Analysis (www.ingenuity.com) and the Database for Annotation, Visualization and Integrated Discovery (DAVID; http://david.abcc.ncifcrf.gov). Connectivity Map analysis, which compares the changes in gene expression signature following flubendazole treatment with gene expression signatures following treatment with other common pharmacological agents, was also performed (http://www.broadinstitute.org/cmap).

Data set [1] deals with bovine tubulin. Put plainly: Tubulin polymerization assay. It is filed as biochemical. To be noted: cell-free, bovine tubulin 1.8 mg/ml; flubendazole 100 μM. The protocol: A representative figure is shown.
Polymerization of bovine tubulin was measured according to Beyer et al^28. Briefly, bovine tubulin (1.8 mg/ml; Cytoskeleton; Denver, USA) was added to ice cold polymerization buffer (PEM; 80 mM PIPES, 0.5 mM EGTA, 2 mM MgCl2, 10% glycerol and 1 mM GTP) and centrifuged at top speed in a microcentrifuge for 5 min at 4° C. […] Following addition of tubulin, the plate was immediately placed in the spectrophotometer, which was maintained at 37° C., and the absorbance measured every 3 minutes for 2.5 h at 340 nm.

In another data set the test system is KB-3-1. In words: MTS assay, KB-3-1 wild type. It is filed as cell-based. The settings on record: Homo sapiens; KB-3-1, MTS assay, 3 replicates. The protocol:
as §1, §2, §3

For data set [2] the following is noted: healthy volunteers, 1000 mg single oral dose, three days after administration; cited from earlier work.
For another data set, the system named is Primary AML cell samples. Put plainly: Methylcellulose colony forming assay. It is filed as cell-based, human. To be noted: primary AML samples (n=3), colonies counted 7 days after plating. The protocol: (C) Primary AML cell samples (n=3) were plated in a methylcellulose colony forming assay with increasing concentrations of flubendazole. Colonies were counted 7 days after plating and normalized to cultures treated with buffer alone. Data represent the mean±SD from 3 independent experiments performed in duplicate.
Primary human acute myeloid leukemia (AML) samples were isolated from the peripheral blood of consenting AML patients, who had at least 80% malignant cells among the mononuclear cells in their peripheral blood and cultured at 37° C. in IMDM, 10% fetal calf serum, 100 units/mL of streptomycin and 100 μg/mL of penicillin. The collection and use of human tissue for this study was approved by the local ethics review board (University Health Network, Toronto, ON, Canada).

Data set [3] concerns bovine tubulin. Put plainly: Site of binding to tubulin (colchicine-tubulin fluorescence). To be noted: tubulin 5.0 μM, 100 μM drug 30 min, then colchicine 10 μM 60 min. The protocol:
(C) Tubulin (5.0 μM) was incubated for 30 min with 100 μM vinblastine, 100 μM flubendazole, or buffer control. […] A representative figure is shown.
The site of flubendazole binding was determined similar to Gupta et al^19. Bovine tubulin (5.0 μM) was incubated with 100 μM flubendazole, 100 μM vinblastine or buffer control for 30 min at 37° C.

The test system of another data set is KB-4.0-HTI. In words: MTS assay, KB-4.0-HTI (α-tubulin mutant). It is filed as cell-based. The protocol:
as §1, §2, §3

Setting [4] is: ratio of IC50 values of Table 1.
The mark [5] stands for this setting: OCI-AML2 xenograft, 20 or 50 mg/kg daily intraperitoneally, vs vehicle, p<0.0001.

Consider `COC(=O)Nc1nc2ccc(C(=O)c3ccc(F)cc3)cc2[nH]1` [flubendazole], for which the IC50 is 800 ± 200 nM in the data set with A549.EpoB40 (A549.EpoB40, MTS assay, 3 replicates); 1900 ± 900 nM in the data set with CEM; 1900 ± 1100 nM with KB-3-1; 12500 ± 1800 nM in the data set with KB-4.0-HTI (KB-4.0-HTI, MTS assay, 3 replicates). In addition, in the data set on A549.EpoB40 (setting [4]), the “IC50 lower in A549.EpoB40 than in A549 control cells” value turned out to be 5 fold. Further, the tumor growth entry in the data set on OCI-AML2 cells (setting [5]) was “significantly delayed tumor growth”. Further, the tumor weights entry in the data set with OCI-AML2 cells (setting [5]) is reported as “reduced tumor weights”. For the same compound, the “weight loss, behavioral changes or gross organ toxicity” value in the data set on OCI-AML2 cells (mouse, in vivo) is “no evidence of weight loss, behavioral changes or gross organ toxicity”. The “number of genes deregulated >4 fold” value in the data set with U937 leukemia cells is on record as 196. For the same compound, the “effect on tubulin polymerization / microtubule formation” value in the data set on bovine tubulin [1] is reported as “inhibited tubulin polymerization”. For the same compound, in [2], the “unchanged drug detected in the feces” value is 77%. Also, the “unchanged drug detected in the urine” value in data set [2] is reported as “less than 0.1%”. In addition, the clonogenic growth entry in the data set with Primary AML cell samples was “reduced the clonogenic growth”. For the same compound, in the data set with bovine tubulin [3], the “colchicine fluorescence (colchicine binding to tubulin)” value is reported as “decreased colchicine fluorescence”. In the data set on KB-4.0-HTI (setting [4]), the “IC50 higher in KB-4.0-HTI than in KB-3-1 wild type cells” value is given as 7 fold.

Values taken from US20120202840A1, “Use of Flubendazole and Vinca Alkaloids for Treatment of Hematological Diseases” (priority 2009, published 2012).
